# Test results published in ChEMBL document CHEMBL3991601, “The target landscape of clinical kinase drugs” (Science, 2017).
# Counter-ions that a name gives are not always drawn. Activity calls are given as the source filed them. Rule as the data show it, for most assays here: actives have a measured Kd and inactives only a lower limit.
# What was measured:
# [1] = biological target: T1, NUAK family SNF1-like kinase 2 (Homo sapiens, UniProt Q9H093)
# T1 sequence (Q9H093 whole entry): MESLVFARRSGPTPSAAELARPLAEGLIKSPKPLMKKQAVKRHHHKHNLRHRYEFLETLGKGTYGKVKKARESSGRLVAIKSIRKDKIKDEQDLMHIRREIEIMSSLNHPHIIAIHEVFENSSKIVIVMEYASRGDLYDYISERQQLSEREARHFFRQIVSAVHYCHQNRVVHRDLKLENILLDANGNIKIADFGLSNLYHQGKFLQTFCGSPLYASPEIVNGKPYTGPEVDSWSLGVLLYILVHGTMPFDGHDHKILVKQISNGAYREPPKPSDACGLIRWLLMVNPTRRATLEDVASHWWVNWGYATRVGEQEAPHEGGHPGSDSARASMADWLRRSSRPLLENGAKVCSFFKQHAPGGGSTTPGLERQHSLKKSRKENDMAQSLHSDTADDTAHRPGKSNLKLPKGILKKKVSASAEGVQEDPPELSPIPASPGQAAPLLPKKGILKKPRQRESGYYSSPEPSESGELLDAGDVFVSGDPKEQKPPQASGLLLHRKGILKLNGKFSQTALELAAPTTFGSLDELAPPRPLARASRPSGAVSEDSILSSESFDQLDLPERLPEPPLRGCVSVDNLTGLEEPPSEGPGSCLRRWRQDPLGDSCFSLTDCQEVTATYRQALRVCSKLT
# [2] = biological target: Midasin (Homo sapiens, UniProt Q9NU22)
# [3] = biological target: T2, dCTP pyrophosphatase 1 (Homo sapiens, UniProt Q9H773)
# T2 sequence (Q9H773 whole entry): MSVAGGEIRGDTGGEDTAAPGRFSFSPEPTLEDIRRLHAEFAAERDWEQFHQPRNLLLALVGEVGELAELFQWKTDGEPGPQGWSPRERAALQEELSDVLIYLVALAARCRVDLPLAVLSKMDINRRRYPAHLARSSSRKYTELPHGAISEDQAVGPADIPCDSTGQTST
# [4] = biological target: Maternal embryonic leucine zipper kinase (Homo sapiens, UniProt Q14680)
# [5] = biological target: T3, Discoidin domain-containing receptor 2 (Homo sapiens, UniProt Q16832)
# T3 sequence (Q16832 whole entry): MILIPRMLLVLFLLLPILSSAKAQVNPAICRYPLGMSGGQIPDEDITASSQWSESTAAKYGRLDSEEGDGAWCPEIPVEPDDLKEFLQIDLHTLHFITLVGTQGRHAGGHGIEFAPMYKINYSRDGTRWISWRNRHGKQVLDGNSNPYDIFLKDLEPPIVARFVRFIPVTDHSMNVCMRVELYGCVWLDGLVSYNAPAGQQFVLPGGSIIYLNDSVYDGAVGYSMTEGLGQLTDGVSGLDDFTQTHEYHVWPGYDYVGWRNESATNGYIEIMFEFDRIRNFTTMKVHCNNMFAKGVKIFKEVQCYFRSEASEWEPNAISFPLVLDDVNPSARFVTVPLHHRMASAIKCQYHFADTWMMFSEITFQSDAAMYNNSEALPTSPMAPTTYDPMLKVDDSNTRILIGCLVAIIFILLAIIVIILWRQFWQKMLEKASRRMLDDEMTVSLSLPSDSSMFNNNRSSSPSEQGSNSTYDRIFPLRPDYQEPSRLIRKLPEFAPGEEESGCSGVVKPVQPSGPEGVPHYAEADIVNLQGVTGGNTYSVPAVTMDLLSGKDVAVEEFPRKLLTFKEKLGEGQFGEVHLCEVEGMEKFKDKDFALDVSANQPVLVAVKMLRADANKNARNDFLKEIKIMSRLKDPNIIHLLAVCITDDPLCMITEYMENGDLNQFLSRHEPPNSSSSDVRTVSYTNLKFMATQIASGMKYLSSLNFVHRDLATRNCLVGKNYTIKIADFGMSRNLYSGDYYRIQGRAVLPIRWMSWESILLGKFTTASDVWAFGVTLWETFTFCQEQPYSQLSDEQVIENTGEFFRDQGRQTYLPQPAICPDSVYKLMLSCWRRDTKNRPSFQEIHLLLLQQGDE
# [6] = biological target: Protein kinase C alpha type (Homo sapiens, UniProt P17252)
# [7] = biological target: Receptor-interacting serine/threonine-protein kinase 3 (Homo sapiens, UniProt Q9Y572)
# [8] = biological target: T4, Very long-chain specific acyl-CoA dehydrogenase, mitochondrial (Homo sapiens, UniProt P49748)
# T4 sequence (P49748 whole entry): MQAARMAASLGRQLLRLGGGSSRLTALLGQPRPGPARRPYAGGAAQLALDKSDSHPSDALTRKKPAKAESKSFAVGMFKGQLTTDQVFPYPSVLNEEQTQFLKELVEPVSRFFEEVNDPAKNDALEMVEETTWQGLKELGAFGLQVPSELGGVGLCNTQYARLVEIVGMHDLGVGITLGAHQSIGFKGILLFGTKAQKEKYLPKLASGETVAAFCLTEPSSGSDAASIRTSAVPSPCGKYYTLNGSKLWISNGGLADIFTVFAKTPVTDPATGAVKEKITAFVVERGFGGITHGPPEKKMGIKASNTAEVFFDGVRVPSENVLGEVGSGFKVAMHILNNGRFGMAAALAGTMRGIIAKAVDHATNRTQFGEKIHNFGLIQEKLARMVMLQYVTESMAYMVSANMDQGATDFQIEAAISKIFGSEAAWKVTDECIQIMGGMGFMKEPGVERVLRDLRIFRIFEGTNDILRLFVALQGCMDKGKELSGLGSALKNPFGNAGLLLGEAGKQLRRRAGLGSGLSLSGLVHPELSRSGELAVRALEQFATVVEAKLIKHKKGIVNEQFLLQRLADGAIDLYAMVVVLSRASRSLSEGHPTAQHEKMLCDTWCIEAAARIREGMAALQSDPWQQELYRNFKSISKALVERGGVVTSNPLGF
# [9] = biological target: Dual specificity protein kinase CLK1 (Homo sapiens, UniProt P49759)
# Also: in the data inactive means no Kd found up to 30 µM.
# Chain of Maternal embryonic leucine zipper kinase (Q14680 whole entry, the tested form may be a part): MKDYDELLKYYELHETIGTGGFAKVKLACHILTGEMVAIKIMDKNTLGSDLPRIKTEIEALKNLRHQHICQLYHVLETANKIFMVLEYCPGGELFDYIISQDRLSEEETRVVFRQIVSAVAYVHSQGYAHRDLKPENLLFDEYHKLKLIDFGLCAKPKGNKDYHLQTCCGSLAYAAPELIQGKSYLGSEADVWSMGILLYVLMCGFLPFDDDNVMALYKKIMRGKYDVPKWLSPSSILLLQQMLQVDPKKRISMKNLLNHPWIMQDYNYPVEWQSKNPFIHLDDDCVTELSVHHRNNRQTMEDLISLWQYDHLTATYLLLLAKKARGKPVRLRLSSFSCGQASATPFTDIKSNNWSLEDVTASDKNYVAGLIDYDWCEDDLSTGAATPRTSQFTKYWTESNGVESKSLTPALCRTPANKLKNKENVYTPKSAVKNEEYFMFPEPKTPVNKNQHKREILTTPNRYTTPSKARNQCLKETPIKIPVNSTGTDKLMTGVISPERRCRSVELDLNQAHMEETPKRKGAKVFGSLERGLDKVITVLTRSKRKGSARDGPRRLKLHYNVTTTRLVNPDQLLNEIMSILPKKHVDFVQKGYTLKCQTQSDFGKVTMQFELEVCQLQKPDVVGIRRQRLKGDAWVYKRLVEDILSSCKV
# Chain of Dual specificity protein kinase CLK1 (P49759 whole entry): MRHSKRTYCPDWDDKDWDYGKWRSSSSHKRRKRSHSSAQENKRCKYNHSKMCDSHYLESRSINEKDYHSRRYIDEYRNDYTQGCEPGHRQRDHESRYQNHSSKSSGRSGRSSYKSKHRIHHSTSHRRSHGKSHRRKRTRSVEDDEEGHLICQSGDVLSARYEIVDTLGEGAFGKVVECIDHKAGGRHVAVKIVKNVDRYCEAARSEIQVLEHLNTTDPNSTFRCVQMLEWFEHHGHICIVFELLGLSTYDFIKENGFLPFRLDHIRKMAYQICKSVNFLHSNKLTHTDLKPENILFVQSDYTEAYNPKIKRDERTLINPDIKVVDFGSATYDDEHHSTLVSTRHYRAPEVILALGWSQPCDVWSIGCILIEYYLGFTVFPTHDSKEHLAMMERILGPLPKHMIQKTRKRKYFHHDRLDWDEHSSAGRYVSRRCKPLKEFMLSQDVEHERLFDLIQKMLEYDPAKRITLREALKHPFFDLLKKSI
# Chain of Receptor-interacting serine/threonine-protein kinase 3 (Q9Y572 whole entry): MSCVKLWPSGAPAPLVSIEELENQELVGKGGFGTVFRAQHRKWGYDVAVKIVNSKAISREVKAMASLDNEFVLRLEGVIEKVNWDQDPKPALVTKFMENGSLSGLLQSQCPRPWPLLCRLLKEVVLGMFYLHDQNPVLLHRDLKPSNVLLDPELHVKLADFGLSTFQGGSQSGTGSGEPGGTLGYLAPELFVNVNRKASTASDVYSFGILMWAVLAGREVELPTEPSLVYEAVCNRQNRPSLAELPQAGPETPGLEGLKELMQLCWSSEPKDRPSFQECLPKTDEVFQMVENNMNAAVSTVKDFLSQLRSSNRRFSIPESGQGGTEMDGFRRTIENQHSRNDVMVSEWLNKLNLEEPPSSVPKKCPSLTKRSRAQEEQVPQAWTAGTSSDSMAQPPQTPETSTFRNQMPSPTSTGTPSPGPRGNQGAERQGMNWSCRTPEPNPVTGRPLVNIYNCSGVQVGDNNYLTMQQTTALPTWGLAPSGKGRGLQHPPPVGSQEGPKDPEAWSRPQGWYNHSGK
Kd [1],Kd [2],Kd [3],Kd [4],Kd [5],Kd [6],Kd [7],Kd [8],Kd [9],Structure (SMILES)
> 30 µM (inactive),> 30 µM (inactive),> 30 µM (inactive),> 30 µM (inactive),> 30 µM (inactive),> 30 µM (inactive),> 30 µM (inactive),> 30 µM (inactive),> 30 µM (inactive),Cn1cnc2c(F)c(Nc3ccc(Br)cc3F)c(C(=O)NOCCO)cc21 [BINIMETINIB]
> 30 µM (inactive),> 30 µM (inactive),> 30 µM (inactive),> 30 µM (inactive),> 30 µM (inactive),> 30 µM (inactive),> 30 µM (inactive),> 30 µM (inactive),> 30 µM (inactive),CCn1c(C(=O)N(C2CC2)C2CC2)cc2c3c(ncn3C)c(Nc3cc(C)n(C)n3)nc21 [BMS-911543]
> 30 µM (inactive),> 30 µM (inactive),> 30 µM (inactive),> 30 µM (inactive),0.183 µM (active),> 30 µM (inactive),0.245 µM,> 30 µM (inactive),> 30 µM (inactive),COc1cc2ncnc(Oc3cccc(NC(=O)Nc4cc(C(C)(C)C(F)(F)F)on4)c3)c2cc1OC [CEP-32496]
> 30 µM (inactive),> 30 µM (inactive),> 30 µM (inactive),> 30 µM (inactive),> 30 µM (inactive),> 30 µM (inactive),> 30 µM (inactive),> 30 µM (inactive),1.06 µM,Cc1cc(Nc2ncc(Cl)c(Nc3ccccc3S(=O)(=O)C(C)C)n2)c(OC(C)C)cc1C1CCNCC1 [CERITINIB]
> 30 µM (inactive),> 30 µM (inactive),> 30 µM (inactive),> 30 µM (inactive),> 30 µM (inactive),> 30 µM (inactive),> 30 µM (inactive),> 30 µM (inactive),> 30 µM (inactive),COc1c(OCCCN2CCOCC2)ccc2c1N=C(NC(=O)c1cnc(N)nc1)N1CCN=C21 [COPANLISIB]
> 30 µM (inactive),> 30 µM (inactive),> 30 µM (inactive),> 30 µM (inactive),> 30 µM (inactive),> 30 µM (inactive),> 30 µM (inactive),> 30 µM (inactive),> 30 µM (inactive),COCC(=O)NC/C=C/c1ccc2ncnc(Nc3ccc(Oc4ccc(C)nc4)c(C)c3)c2c1 [CP-724714]
> 30 µM (inactive),> 30 µM (inactive),> 30 µM (inactive),> 30 µM (inactive),> 30 µM (inactive),> 30 µM (inactive),> 30 µM (inactive),> 30 µM (inactive),> 30 µM (inactive),C#Cc1cccc(Nc2ncnc3cc(OC)c(OCCCCCCC(=O)NO)cc23)c1 [CUDC-101]
> 30 µM (inactive),> 30 µM (inactive),> 30 µM (inactive),> 30 µM (inactive),> 30 µM (inactive),> 30 µM (inactive),> 30 µM (inactive),> 30 µM (inactive),> 30 µM (inactive),CCS(=O)(=O)N1CCN(c2ccc(Nc3ncc(C(N)=O)c(NC4CC4)n3)cc2)CC1 [Cerdulatinib Hydrochloride]
> 30 µM (inactive),> 30 µM (inactive),> 30 µM (inactive),> 30 µM (inactive),> 30 µM (inactive),> 30 µM (inactive),0.011 µM (active),> 30 µM (inactive),> 30 µM (inactive),Cc1cccc(-c2nn3c(c2-c2ccnc4ccc(C(N)=O)cc24)CCC3)n1 [GALUNISERTIB]
> 30 µM (inactive),> 30 µM (inactive),> 30 µM (inactive),> 30 µM (inactive),1.27 µM (active),> 30 µM (inactive),> 30 µM (inactive),> 30 µM (inactive),> 30 µM (inactive),CCn1cc(-c2ccnc3[nH]c(-c4cccc(CN(C)C)c4)cc23)c(-c2ccc(NC(=O)N(C)C)cc2)n1 [GSK-1070916]
> 30 µM (inactive),> 30 µM (inactive),> 30 µM (inactive),> 30 µM (inactive),> 30 µM (inactive),> 30 µM (inactive),> 30 µM (inactive),> 30 µM (inactive),> 30 µM (inactive),COc1ccc(S(=O)(=O)N(C(C)=O)c2ccccc2/C=C/c2cc[n+]([O-])cc2)cc1 [HMN-214]
> 30 µM (inactive),> 30 µM (inactive),> 30 µM (inactive),> 30 µM (inactive),0.094 µM (active),> 30 µM (inactive),> 30 µM (inactive),> 30 µM (inactive),> 30 µM (inactive),CNC(=O)c1cccc2cc(Oc3ccnc4cc(OCC5(N)CC5)c(OC)cc34)ccc12 [LUCITANIB]
> 30 µM (inactive),> 30 µM (inactive),> 30 µM (inactive),> 30 µM (inactive),> 30 µM (inactive),> 30 µM (inactive),> 30 µM (inactive),> 30 µM (inactive),> 30 µM (inactive),NC1(c2ccc(-c3nc4ccn5c(=O)[nH]nc5c4cc3-c3ccccc3)cc2)CCC1 [MK-2206]
> 30 µM (inactive),> 30 µM (inactive),> 30 µM (inactive),> 30 µM (inactive),> 30 µM (inactive),> 30 µM (inactive),> 30 µM (inactive),> 30 µM (inactive),> 30 µM (inactive),Cn1cc(-c2cnc3ccc4ccc(CS(=O)(=O)NCc5ccccn5)cc4c(=O)c3c2)cn1 [MK-8033]

Structure (SMILES),Kd [1],Kd [2],Kd [3],Kd [4],Kd [5],Kd [6],Kd [7],Kd [8],Kd [9]
CC(C)(C)c1nc(-c2cccc(NS(=O)(=O)c3c(F)cccc3F)c2F)c(-c2ccnc(N)n2)s1 [DABRAFENIB],> 30 µM (inactive),> 30 µM (inactive),> 30 µM (inactive),1.82 µM (active),> 30 µM (inactive),> 30 µM (inactive),0.283 µM (active),> 30 µM (inactive),> 30 µM (inactive)
O=C(Nc1cc(C(F)(F)F)cc(C(F)(F)F)c1)c1cc(Cl)ccc1O [IMD-0354],> 30 µM (inactive),> 30 µM (inactive),> 30 µM (inactive),> 30 µM (inactive),> 30 µM (inactive),> 30 µM (inactive),> 30 µM (inactive),> 30 µM (inactive),> 30 µM (inactive)
